# Laboratory results: PubChem BioAssay (NCI)
# “And” between values parts separate entries of the source, which are not always exact repeats. Equal values may be shown once.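 Where inhibition never reached the appropriate level, the endpoint shown equals the highest concentration tested. Otherwise, values were interpolated linearly from a five-concentration, 48-hour dose response in 96-well plates. GI50 = concentration required for 50% inhibition of growth. TGI denotes the concentration required for complete inhibition of growth.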
# Assays:
# Experiment in all cases: growth of human tumour cells (NCI), 48 h
# HCT-116 colon = tested on: HCT-116 colon
# A498 renal = tested on: A498 renal
# SNB-19 CNS = tested on: SNB-19 CNS
# A549 NSCLC = tested on: A549 NSCLC
# SK-MEL-5 melanoma = tested on: SK-MEL-5 melanoma
# 786-0 renal = tested on: 786-0 renal
# CAKI-1 renal = tested on: CAKI-1 renal
# SR leukemia = tested on: SR leukemia
# U251 CNS = tested on: U251 CNS
# NCI-H226 lung = tested on: NCI-H226 lung
Structure (SMILES),GI50 (HCT-116 colon),TGI (HCT-116 colon),GI50 (A498 renal),TGI (A498 renal),GI50 (SNB-19 CNS),TGI (SNB-19 CNS),GI50 (A549 NSCLC),TGI (A549 NSCLC),GI50 (SK-MEL-5 melanoma),TGI (SK-MEL-5 melanoma),GI50 (786-0 renal),TGI (786-0 renal),GI50 (CAKI-1 renal),TGI (CAKI-1 renal),GI50 (SR leukemia),TGI (SR leukemia),GI50 (U251 CNS),TGI (U251 CNS),GI50 (NCI-H226 lung),TGI (NCI-H226 lung)
Cc1ncsc1-c1ccc(CNC(=O)[C@@H]2C[C@@H](O)CN2C(=O)[C@@H](NC(=O)C2(C#N)CC2)C(C)(C)C)cc1,> 100 µM,> 100 µM,24 µM,> 100 µM,> 100 µM,> 100 µM,> 100 µM,> 100 µM,> 100 µM,> 100 µM,> 100 µM,> 100 µM,82 µM,> 100 µM,55.4 µM,> 100 µM,> 100 µM,> 100 µM,> 100 µM,> 100 µM
C=C(CN1CCN(c2cccc(C(F)(F)F)n2)CC1)c1ccc(C(=S)Nc2ccccc2N)cc1,2.76 µM,19.8 µM,2.57 µM,> 100 µM,4.12 µM,> 100 µM,3.32 µM,> 100 µM,1.46 µM,3.17 µM,4.29 µM,> 100 µM,3.26 µM,> 100 µM,2.44 µM,6.49 µM,3.77 µM,38.5 µM,4.91 µM,> 100 µM
COc1ccc(-c2nc(N3CCN(C(=O)C4CCCCC4)CC3)c3c4c(sc3n2)CCCC4)cc1,34.2 µM,> 100 µM,14.2 µM,81.3 µM,25.7 µM,> 100 µM,50.1 µM,> 100 µM,68.9 µM,> 100 µM,38.2 µM,> 100 µM,60.6 µM,> 100 µM,> 100 µM,> 100 µM,37.9 µM,> 100 µM,41 µM,> 100 µM
O=C1c2ccccc2C(=O)N1C/C=C/CO,–,> 100 µM,–,> 100 µM,–,> 100 µM,–,> 100 µM,–,> 100 µM,–,> 100 µM,–,> 100 µM,–,> 100 µM,–,> 100 µM,–,> 100 µM
c1ccc2c(c1)[nH]c1c2nc2ncccn21,–,> 100 µM,–,> 100 µM,–,> 100 µM,–,> 100 µM,–,> 100 µM,–,> 100 µM,–,> 100 µM,–,> 100 µM,–,> 100 µM,–,> 100 µM
CNC(=O)Oc1cc(C)c(/C=C/c2cncc(C(=O)NC)c2)c(C)c1,> 25 µM,> 25 µM,> 25 µM,> 25 µM,> 25 µM,> 25 µM,> 25 µM,> 25 µM,> 22.1 µM,> 25 µM,> 25 µM,> 25 µM,> 25 µM,> 25 µM,> 20.4 µM,> 25 µM,> 25 µM,> 25 µM,> 25 µM,> 25 µM
C[C@H](CCCNCCCNCCCN)[C@H]1CC[C@H]2[C@@H]3[C@H](OCCCN)C[C@H]4C[C@H](OCCCN)CC[C@]4(C)[C@H]3C[C@H](OCCCN)[C@]12C,0.482 µM,10.2 µM,> 100 µM,> 100 µM,1.92 µM,> 83.4 µM,2.08 µM,18.3 µM,0.626 µM,3.29 µM,0.824 µM,5.49 µM,16 µM,> 100 µM,0.326 µM,1.66 µM,2.65 µM,19.7 µM,–,> 76.7 µM
N#CS.N=C=S.N=C=S.[Cu+2].[NH2-].[NH2-].[NH2-].[NH2-].c1ccc2ncccc2c1,> 100 µM,> 100 µM,28.4 µM,51 µM,18.1 µM,32.9 µM,20.4 µM,51.5 µM,17.8 µM,38.7 µM,> 100 µM,> 100 µM,> 100 µM,> 100 µM,> 100 µM,> 100 µM,20.1 µM,38.1 µM,28.3 µM,49.4 µM
COc1cc(O)c2c(c1)C(=O)c1cc3c(c(O)c1C2=O)C(OC1OC(C)C(O)C(O)C1OC)C(OC)C(C)(O)C3=O (stereo not drawn),1.63 µM and 0.665 µM,6.56 µM and 5.88 µM,1.58 µM,3.13 µM and 5.31 µM,2.42 µM,8.9 µM and 15.5 µM,–,12 µM,1.27 µM,2.57 µM and 2.26 µM,2.42 µM,40.5 µM,1.99 µM and 0.671 µM,6.82 µM and 4.95 µM,2.16 µM,> 100 µM,2.56 µM,13.2 µM and 11.8 µM,2.22 µM,4.82 µM and 9.03 µM
O=C(NCc1ccco1)c1ccc(NC2=C(Cl)C(=O)N(Cc3ccccc3)C2=O)cc1,10.2 µM,21.8 µM,29.6 µM,62.5 µM,21.3 µM,45.6 µM,37.2 µM,> 100 µM,27.4 µM,73.4 µM,12.6 µM,28.2 µM,1.84 µM,3.39 µM,2.21 µM,7.14 µM,18.3 µM,44.9 µM,17.2 µM,60.8 µM
C/C(=C(\c1ccc(OCCN2CCCCCC2)cc1)c1ccc(OC(=O)Cc2ccccc2)cc1)c1ccc(Cl)cc1,1.32 µM,3.47 µM,6.35 µM,16.7 µM,2.96 µM,6.41 µM,2.7 µM,5.41 µM,2.36 µM,4.58 µM,1.78 µM,3.85 µM,2.74 µM,5.37 µM,0.556 µM,6.87 µM,2.59 µM,5.03 µM,2.94 µM,7.32 µM
COc1ccc(-c2cc(-c3ccc(O)cc3)nc3n[nH]c(N)c23)cc1,17.4 µM,37.3 µM,16.8 µM,36.6 µM,33.3 µM,> 100 µM,26.8 µM,> 100 µM,15.1 µM,28.8 µM,26 µM,74.3 µM,20.2 µM,78.3 µM,24.1 µM,> 100 µM,18.6 µM,46.7 µM,17.9 µM,49.5 µM
CNC(=O)c1cccc2c(Nc3ccc(NS(C)(=O)=O)cc3OC)c3cccc(C)c3nc12,–,2.86 µM,–,1.15 µM,–,5.04 µM,–,1.61 µM,–,1.9 µM,–,0.413 µM,–,1.41 µM,–,0.365 µM,–,0.719 µM,–,1.05 µM
CCN(CC)CCNc1cc(-c2cccc(OC(F)(F)F)c2)nc2ccc(N3CCCC3)cc12,1.24 µM and 1.26 µM and 1.54 µM,2.52 µM and 2.72 µM and 3.05 µM,1.61 µM and 1.82 µM and 3.42 µM,6.15 µM and 3.44 µM and 14.9 µM,1.75 µM and 1.84 µM and 1.98 µM,3.4 µM and 3.31 µM and 3.8 µM,1.71 µM and 1.73 µM and 2.55 µM,3.35 µM and 3.29 µM and 7.3 µM,1.63 µM and 1.91 µM and 1.7 µM,2.99 µM and 3.35 µM and 3.17 µM,1.66 µM and 1.67 µM and 1.59 µM,3.19 µM and 3.23 µM,1.58 µM and 1.41 µM and 3.08 µM,3.29 µM and 2.76 µM and 11.5 µM,0.418 µM and 0.462 µM,2.12 µM and 2.26 µM,1.54 µM and 1.55 µM and 1.71 µM,3.1 µM and 2.95 µM and 3.35 µM,2.08 µM and 1.76 µM and 2.79 µM,4.26 µM and 3.45 µM and 8.02 µM
COc1ccc2nc3ccccc3c(NCCCN(C)CCCl)c2c1,–,1.36 µM,–,2.42 µM,–,2.06 µM,–,2.42 µM,–,1.59 µM,–,1.07 µM,–,1.62 µM,–,0.146 µM,–,1.71 µM,–,1.62 µM
Cc1cc(Oc2ccc3nc(COc4ccc(CC5SC(=O)NC5=O)cc4)n(C)c3c2)cc(C)c1N (stereo not drawn),26.7 µM,> 85.3 µM,> 43.4 µM,> 100 µM,42.2 µM,> 100 µM,29.5 µM,> 87.7 µM,15.6 µM,32.5 µM,49.9 µM,> 100 µM,30.9 µM,> 100 µM,31.7 µM,> 100 µM,32.2 µM,> 94 µM,46.8 µM,> 95.7 µM
COc1ccc(CNc2nc3cc(N)cc(N)c3nc2-c2ccccc2)cc1,14.4 µM,27.5 µM,> 100 µM,> 100 µM,41.5 µM,> 100 µM,21.5 µM,59.8 µM,17.6 µM,31.4 µM,15.1 µM,41.4 µM,16.3 µM,35.9 µM,4.09 µM,> 100 µM,13.6 µM,26.5 µM,20.2 µM,70.5 µM
CCCCCCc1nc2nc(Cl)c(Cl)nc2[nH]1,6.83 µM,> 100 µM,3.81 µM,> 100 µM,6.2 µM,> 100 µM,4.34 µM,> 100 µM,2.61 µM,> 100 µM,> 100 µM,> 100 µM,6.37 µM,> 100 µM,8.98 µM,> 100 µM,6.44 µM,> 100 µM,7.21 µM,> 100 µM
O=C1OC(c2ccccc2)(c2cc(Br)c(O)c(Br)c2)c2ccccc21 (stereo not drawn),15.6 µM,29.1 µM,21.1 µM,52 µM,29.7 µM,> 100 µM,31.3 µM,> 100 µM,14.5 µM,30.7 µM,19.3 µM,38.7 µM,29.2 µM,> 100 µM,26 µM,> 100 µM,16.9 µM,38 µM,26.2 µM,84.4 µM
